The results in this text go back to US11584916B2, “Method of making in vivo human small intestine organoids from pluripotent stem cells” (Children's Hospital Medical Center, priority 2014, dated 2023).

Entries after “also recorded” stand apart in the source; their conditions may differ.

In assay [1] the target is T1, peptide transporter (PEPT1) (Homo sapiens, UniProt P46059).
T1 sequence (P46059 1-708): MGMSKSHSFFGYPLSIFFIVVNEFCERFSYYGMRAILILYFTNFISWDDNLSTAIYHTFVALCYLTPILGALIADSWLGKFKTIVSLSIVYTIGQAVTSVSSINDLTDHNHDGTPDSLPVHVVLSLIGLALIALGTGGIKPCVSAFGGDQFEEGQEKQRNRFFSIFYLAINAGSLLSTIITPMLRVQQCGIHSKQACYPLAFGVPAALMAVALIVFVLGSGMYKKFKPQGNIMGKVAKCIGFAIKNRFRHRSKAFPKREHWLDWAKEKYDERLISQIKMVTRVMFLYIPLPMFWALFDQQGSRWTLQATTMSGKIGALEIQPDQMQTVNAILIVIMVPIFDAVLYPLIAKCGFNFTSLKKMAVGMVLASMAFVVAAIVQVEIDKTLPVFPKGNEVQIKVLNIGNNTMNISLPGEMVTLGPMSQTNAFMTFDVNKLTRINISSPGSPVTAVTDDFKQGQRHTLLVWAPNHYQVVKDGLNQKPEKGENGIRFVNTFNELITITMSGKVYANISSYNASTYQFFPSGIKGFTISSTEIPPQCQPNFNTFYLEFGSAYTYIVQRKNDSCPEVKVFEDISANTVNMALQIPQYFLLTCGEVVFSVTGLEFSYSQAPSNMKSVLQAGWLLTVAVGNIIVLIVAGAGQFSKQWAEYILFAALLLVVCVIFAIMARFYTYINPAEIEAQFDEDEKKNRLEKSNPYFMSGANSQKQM
The settings on record: in vivo.

For assay [2], the system named is ENS neurons in HIOs+NCCs. Briefly: Live imaging of Ca2+ flux (GCaMP6f) in HIOs+NCCs in vitro. Type of assay: cell-based, human. The settings on record: 30 mM; HIOs+GCaMP6 expressing NCCs. An excerpt:
The accessibility of in vitro grown HIOs allowed us to test the functionality of neurons using live imaging with the Ca2+ sensor GCaMP6f19. To do this, Applicant generated HIOs and incorporated into them NCCs that were derived from a PSC line containing GCaMP6 (FIG. 17A). Imaging of neural activity in HIOs grown for 8 weeks in vitro detected broad, spontaneous, and rapid calcium transients within neurons. When individual neurons were monitored there was an obvious periodicity of calcium efflux in the range of 3-4 seconds/neuron (FIGS. 17B and 17C).
For orientation: Calcium flux is commonly read through the fluorescence of an indicator in the cells.

Assay [3] deals with HIO+NCC tissues. In words: Ex-vivo intestinal motility, organ bath, muscle strips of engrafted HIO+NCC. Type of assay: cell-based, human.
Assay [4] concerns HIO+NCC tissue. Type of assay: cell-based, human.
Assay [5] deals with human pluripotent stem cells. In words: Directed differentiation of human pluripotent stem cells into definitive endoderm. Format: cell-based. Conditions: 100 ng ml-1 Activin A for 3 d. On the procedure:
Human intestinal organoids were generated and maintained as previously described (Spence et al, Nature 2011 and McCracken et al. Nat. Protoc. 2011). Human embryonic stem cells and induced pluripotent stem cells were grown in feeder-free conditions in six-well Nunclon surface plates (Nunc) coated with Matrigel (BD Biosciences) and maintained in mTESR1 media (Stem Cell Technologies). For induction of definitive endoderm (DE), human ES or iPS cells were passaged with Dispase or Accutase (Invitrogen) and plated at a density of 100,000 cells per well in a Matrigel-coated, Nunclon surface 24-well plate. For Accutase split cells, 10 μM Y27632 compound (Sigma) was added to the media for the first day. Cells were allowed to grow until they reached 80-95% confluence. Cells were then treated with 100 ng ml-1 of Activin A for 3 d as previously described (D'Amour et al. Nat. Biotechnol. 2005). DE was then treated with hindgut induction medium (RPMI 1640, 2 mM L-glutamine, 2% decomplemented FBS, penicillin-streptomycin and 100 ng ml-1 Activin A) for 4 d with 500 ng mL-1 FGF4 (R&D) and 3 μM Chiron 99021 (Tocris) to induce formation of mid-hindgut spheroids. […]

Assay [6] relates to vagal-level Hox genes HOXB3, HOXB5, and HOXB7. Briefly: Posteriorization of human PSC-derived neurospheres/NCCs, Hox gene expression by qRT-PCR. Format: cell-based. Conditions: two days (48 hours) at the neurosphere stage; RA 2 μM. The protocol: Cells were fed mTeSR1 media and routinely passaged using Dispase II (Gibco). NCCs and HIOs were generated and combined at an early stage of intestinal differentiation to generate HIOs containing ENS. Briefly, for NCC generation (FIG. 1), hPSCs were treated with collagenase IV (500 U/mL) in mTeSR1 for 60 min to detach colonies. Cells were washed to remove collagenase, then gently triturated and resuspended in neural induction media on non-TC treated petri dishes. Neural induction media was changed daily and retinoic acid (2 μM) was added on days 4 and 5 for posteriorization. Day 6 free-floating neurospheres were plated on fibronectin (3 μg/cm2) and fed neural induction media without RA for 4 days. Migrated cells were collected using a brief Accutase treatment (2-3 min) and passaged onto fibronectin or used immediately for combining with HIOs. NCCs were differentiated essentially as described for neuroglial 9 and mesenchymal lineages 36. […] Following the formation of gut tube spheroids, Applicant gently centrifuged spheroids +/−NCCs and embedded them in Matrigel. […]
Total RNA from cells and organoids was isolated using NucleoSpin RNA isolation Kit (Macherey-Nagel). […] Applicant performed qPCR using QuantiTect SYBR Green PCR Kit (Qiagen) on a BioRad CFX96 Real-Time PCR Detection System. […]
A general note: Quantitative PCR measures a nucleic acid by following its amplification.

Assay [7] relates to vagal-level Hox genes HoxB3 and HoxB7. In words: Chick cranial NCC culture, Hox gene expression. Type of assay: cell-based. The settings on record: 2 μM RA or 4 ng/mL FGF4 for 48 hours. On the procedure: Chicken eggs were purchased from Charles River and incubated at 39° C. until they reached the desired Hamburger and Hamilton stage. For chicken NCC culture, dorsal neural tubes from cranial or trunk region of HH8 embryos were dissected by Gastromaster and cultured on matrigel-coated tissue culture dish with NCC culture medium (BajPai R et al, 2010) for 24 hours. The neural ectoderm was scrapped off the plate by tungsten needle after NCCs migrated out from the neural tube explants. The NCCs remained on the plate were then treated with 4 ng/mL FGF4 or 2 μM Retinoic acid for 48 hours. For NCCs injection, GFP-labeled human PSC-derived NCCs were collected and injected intersomitically into HH10-12 chicken embryos. The embryos were harvested around HH38 for analysis.

On to `C[C@H](CS)C(=O)N1CCC[C@H]1C(=O)O` [Captopril], for which the “fluorescence within the epithelium after injection of labeled peptide + competitive inhibitor” value in assay [1] is on record as “little to no fluorescence was observed”.

Turning to `[Cl-].[K+]` [KC1], the neuronal calcium response result in assay [2] is listed as “large wave of neuronal calcium efflux”.

Take `CN(C)c1ccc2nc3ccc(=[N+](C)C)cc-3sc2c1` [Methylene Blue]: the “effect on spontaneous phasic contractions (ICC activity)” value in assay [3] (Methylene Blue 50 μM, no neuronal stimulation) is “abolished phasic contractions; also recorded: loss of contractile activity”.

Take `COC(=O)[C@@H](N)CCCNC(=N)N[N+](=O)[O-]` [L-NAME, NG-nitro-L-arginine methyl ester]: the “effect on relaxation after DMPP stimulation” value in assay [3] (L-NAME applied 5 min before DMPP (10 μM) stimulation) is listed as “significantly decreased the relaxation”.

For `NC1=N[C@H](O)[C@H]2[C@H]3O[C@]4(O)O[C@@H]([C@@H](O)[C@@]2(N1)[C@@H]4O)[C@]3(O)CO` [TTX, tetrodotoxin], the “effect on contractions/motility triggered by low voltage EFS” value in assay [4] is “completely inhibited and lost”. The “effect on muscle relaxation in response to DMPP and or veratridine” value in assay [3] is recorded as “inhibited the ability of the neurons to induce muscle relaxation”.

B1: Activin A: growth factor used to induce definitive endoderm (protein, UniProt P08476 311-426, looked up)
Inhibin beta A chain: GLECDGKVNICCKKQFFVSFKDIGWNDWIIAPSGYHANYCEGECPSHIAGTSGSSLSFHSTVINHYRMRGHSPFANLKSCCVPTKLRPMSMLYYDDGQNIIKKDIQNMIVEECGCS
modifications: Inhibin beta A chain
notes: growth factor used to induce definitive endoderm
Turning to B1, in assay [5], the “differentiation into definitive endoderm (FOXA2 and SOX17)” value is reported as “efficient differentiation into definitive endoderm”.

B2: FGF4: growth factor tested as a different posterizing factor (protein, UniProt P08620 31-206, looked up)
Fibroblast growth factor 4: APTAPNGTLEAELERRWESLVALSLARLPVAAQPKEAAVQSGAGDYLLGIKRLRRLYCNVGIGFHLQALPDGRIGGAHADTRDSLLELSPVERGVVSIFGVASRFFVAMSSKGKLYGSPFFTDECTFKEILLPNNYNAYESYKYPGMFIALSKNGKTKKGNRVSPTMKVTHFLPRL
On to B2, for which, in assay [6], the “expression of vagal-level Hox genes in human PSC-derived NCCs” value is reported as “little effect”. Also, in assay [7], the “Hox gene expression in chick cranial NCCs” value was “had no effect”.
